# Test results from patent publication US7875629B2, “Quinolinone compounds as 5-HT4 receptor agonists” (Theravance, Inc., priority 2005, dated 2011).
# Experiments:
# [1] = biological target: T1, hERG cardiac potassium channel (Homo sapiens, UniProt Q12809); assay: in vitro; assay type: cell-based; conditions: pH 7.4
# T1 construct: host or cells: CHO-K1 cells stably transfected with HERG cDNA
# Description: In Vitro Voltage Clamp Assay of Inhibition of Potassium Ion Current in Whole Cells Expressing the hERG Cardiac Potassium Channel
# CHO-K^1 cells stably transfected with HERG cDNA were obtained from Gail Robertson at the University of Wisconsin. Cells were held in cryogenic storage until needed. Cells were expanded and passaged in Dulbecco's Modified Eagles Medium/F12 supplemented with 10% fetal bovine serum and 200 μg/mL geneticin. Cells were seeded onto poly-D-lysine (100 μg/mL) coated glass coverslips, in 35 mm^2 dishes (containing 2 mL medium) at a density that enabled isolated cells to be selected for whole cell voltage-clamp studies. The dishes were maintained in a humidified, 5% CO2 environment at 37° C.
# Extracellular solution was prepared at least every 7 days and stored at 4° C. when not in use. […]
# The coverslips on which the cells were seeded were transferred to a recording chamber and perfused continuously. […] Peak current amplitudes during the repolarization phase were determined using pClamp software. […]
# Peak current amplitudes during the repolarization phase were determined using pCLAMP software. […] The normalized current means and standard errors for each condition were calculated and plotted versus the time course of the experiment. […]
# in vivo = conditions: male, Sprague-Dawley, rat
# Description: Pharmacokinetic Study in the Rat
# Male Sprague-Dawley rats (CD strain, Charles River Laboratories, Wilmington, Mass.) were dosed with test compounds via intravenous administration (IV) at a dose of 2.5 mg/kg or by oral gavage (PO) at a dose of 5 mg/kg. The dosing volume was 1 mL/kg for IV and 2 mL/kg for PO administration. Serial blood samples were collected from animals pre-dose, and at 2 (IV only), 5, 15, and 30 min, and at 1, 2, 4, 8, and 24 hours post-dose.
# Standard pharmacokinetic parameters were assessed by non-compartmental analysis (Model 201 for IV and Model 200 for PO) using WinNonlin (Version 4.0.1, Pharsight, Mountain View, Calif.). The maximum in the curve of test compound concentration in blood plasma vs. time is denoted Cmax. The area under the concentration vs. time curve from the time of dosing to the last measurable concentration (AUC(0-t)) was calculated by the linear trapezoidal rule. Oral bioavailability (F(%)), i.e. the dose-normalized ratio of AUC(0-t) for PO administration to AUC(0-t) for IV administration, was calculated as: F(%)=AUCPO/AUCIV×DoseIV/DosePO×100%
# T1 sequence (Q12809 whole entry): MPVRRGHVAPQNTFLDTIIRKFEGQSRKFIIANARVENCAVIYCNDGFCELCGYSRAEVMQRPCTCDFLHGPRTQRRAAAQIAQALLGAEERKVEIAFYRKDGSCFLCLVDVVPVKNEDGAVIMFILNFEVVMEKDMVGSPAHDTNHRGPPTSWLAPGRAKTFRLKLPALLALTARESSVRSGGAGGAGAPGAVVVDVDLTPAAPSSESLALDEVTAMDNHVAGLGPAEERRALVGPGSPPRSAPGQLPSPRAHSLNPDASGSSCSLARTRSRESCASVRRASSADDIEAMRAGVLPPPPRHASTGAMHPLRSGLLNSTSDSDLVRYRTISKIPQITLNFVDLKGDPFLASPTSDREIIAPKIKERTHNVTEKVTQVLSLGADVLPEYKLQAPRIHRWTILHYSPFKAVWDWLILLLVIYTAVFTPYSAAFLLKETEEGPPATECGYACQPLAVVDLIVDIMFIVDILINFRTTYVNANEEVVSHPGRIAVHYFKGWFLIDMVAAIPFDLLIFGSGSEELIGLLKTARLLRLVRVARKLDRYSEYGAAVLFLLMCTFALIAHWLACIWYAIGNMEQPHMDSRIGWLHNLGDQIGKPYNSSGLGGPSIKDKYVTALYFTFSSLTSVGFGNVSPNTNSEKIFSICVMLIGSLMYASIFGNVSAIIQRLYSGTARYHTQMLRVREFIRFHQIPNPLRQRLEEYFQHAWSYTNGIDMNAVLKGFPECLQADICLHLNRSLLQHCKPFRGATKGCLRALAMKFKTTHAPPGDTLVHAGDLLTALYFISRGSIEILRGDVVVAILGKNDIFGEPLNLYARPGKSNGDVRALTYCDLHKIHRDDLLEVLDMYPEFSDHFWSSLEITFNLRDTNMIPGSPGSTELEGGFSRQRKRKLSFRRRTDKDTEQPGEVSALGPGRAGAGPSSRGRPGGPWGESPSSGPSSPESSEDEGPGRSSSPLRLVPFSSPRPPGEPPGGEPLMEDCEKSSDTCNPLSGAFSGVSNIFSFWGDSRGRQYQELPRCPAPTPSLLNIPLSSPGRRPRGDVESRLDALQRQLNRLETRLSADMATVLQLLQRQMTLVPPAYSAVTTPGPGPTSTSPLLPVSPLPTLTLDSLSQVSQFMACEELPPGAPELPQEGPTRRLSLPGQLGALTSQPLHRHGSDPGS
smiles,measurement,setting,value
"CC(C)n1c(=O)c(C(=O)NC2CC3CCC(C2)N3CCCS(=O)(=O)N2CCN(C)CC2)cc2ccccc21 [Example 17, 1-isopropyl-2-oxo-1,2-dihydroquinoline-3-carboxylic acid {(1S,3R,5R)-8-[3-(4-methylpiperazine-1-sulfonyl)propyl]-8-azabicyclo[3.2.1]oct-3-yl}amide]","inhibition at 5 min, 3 µM",[1],< 15%
same,bioavailability,in vivo,~20%
same,AUC(0-t),"in vivo; po, 5 mg/kg",450 ng·h/mL
same,Cmax,"in vivo; po, 5 mg/kg",60 ng/mL
